From ChEMBL document CHEMBL1944551, “An integrated computational workflow for efficient and quantitative modeling of renin inhibitors” (Bioorg Med Chem, 2012) come the findings set out here.

The structures appear in SMILES notation.

The first data set deals with T1, Renin (Homo sapiens, UniProt P00797).
T1 sequence (P00797 whole entry): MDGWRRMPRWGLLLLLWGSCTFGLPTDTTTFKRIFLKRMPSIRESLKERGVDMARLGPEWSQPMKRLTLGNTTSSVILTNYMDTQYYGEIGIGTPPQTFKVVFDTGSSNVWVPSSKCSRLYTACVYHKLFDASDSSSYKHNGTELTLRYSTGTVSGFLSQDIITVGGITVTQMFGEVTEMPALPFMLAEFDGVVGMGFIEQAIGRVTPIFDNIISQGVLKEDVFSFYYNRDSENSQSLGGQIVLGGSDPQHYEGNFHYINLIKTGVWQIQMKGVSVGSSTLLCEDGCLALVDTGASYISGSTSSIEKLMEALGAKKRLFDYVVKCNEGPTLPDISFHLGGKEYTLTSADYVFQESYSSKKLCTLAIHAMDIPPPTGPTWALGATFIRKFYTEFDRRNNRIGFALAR
Assay: not given
Conditions: not given
What is called IC50 is the point on the concentration scale where inhibition reaches its midpoint. A high value points to lower potency. Regarding `O=C(c1c(Oc2ccccc2)n(-c2ccccc2)c2cc(Cl)ccc12)N1CCNCC1`, half-maximal inhibition (IC50) was put at 537 nM.
The same measure, in the same setting: the value for `Cc1c(F)cccc1Cc1cc2c(cc1O)c(C(=O)N1CCNCC1)c(Cc1cccc(F)c1C)n2-c1ccccc1` was 427 nM.
Same read-out and setting: next, `Cc1ccc(F)cc1Oc1c(C(=O)N2CCNCC2)c2ccc(O)cc2n1-c1ccc(F)cc1`: 15.8 nM; `Cc1ccc(F)cc1Oc1c(C(=O)N2CCNCC2)c2ccccc2n1[C@H]1C=CCCC1`: 6.46 nM; `Cc1cc(Cl)c(OCCOc2ccc(N3C(=O)CNC[C@@H]3C(=O)N(Cc3cccc(C)c3C)C3CC3)cc2)cc1C`: 7.76 nM.
Same read-out and setting: next, `Cc1cccc(CN(C(=O)[C@H]2CNCC(=O)N2c2ccc(OCCOc3c(Cl)cc(F)cc3Cl)cc2)C2CC2)c1C`: 10.2 nM.

Test system in a further data set: not listed separately
The data set can be described thus: physchem. As to conditions: octanol/buffer.
The logP is the decadic logarithm of the partition coefficient of the neutral form, usually between octanol and water. High values mean a more lipophilic compound, low ones a more hydrophilic compound. `Cc1cc(Cl)c(OCCOc2ccc(N3C(=O)CNC[C@@H]3C(=O)N(C)CCCc3ccccc3)cn2)c(Cl)c1`: the logP was 4.29.
Regarding `CN(CCCc1ccccc1)C(=O)[C@H]1CNCC(=O)N1c1ccc(COC(=O)c2ccccc2)cc1`, the lipophilicity (logP) turned out to be 4.02.
The same measure, in the same setting: next, `CN(CCCc1ccccc1)C(=O)[C@H]1CNCC(=O)N1c1ccc(OCCCOCc2ccccc2)cc1`: 4.39; `COc1ccccc1COCCCOc1ccc(N2C(=O)CNC[C@@H]2C(=O)N(C)CCCc2ccccc2)cc1`: 4.35.
In turn, `COc1ccccc1COCCCOc1ncc(N2C(=O)CNC[C@@H]2C(=O)N(C)CCCc2ccccc2)cn1` came in with a logP of 2.34.
Still for that read-out and setting: the value for `CN(CCCc1ccccc1)C(=O)[C@H]1CNCC(=O)N1c1ccc(CCCOc2cccc(Cl)c2)cc1` was 5.19.
On the same count and under the same terms, the value for `CN(CCCc1ccccc1)C(=O)[C@H]1CNCC(=O)N1c1ccc(CCCOc2c(F)ccc(F)c2F)cc1` was 5.01; that for `Cc1cc(Cl)c(OCCOc2ccc(N3C(=O)CNC[C@@H]3C(=O)N(Cc3ccc(Cl)cc3)C3CC3)cc2)c(Cl)c1` was 5.83.
Take `Cc1cc(Cl)c(OCCOc2ccc(N3C(=O)CNC[C@@H]3C(=O)N(Cc3ccc(Cl)cc3)C3CC3)cn2)c(Cl)c1`: the logP turned out to be 5.01.
For `O=C(OCc1ccc(N2C(=O)CNC[C@@H]2C(=O)N(Cc2ccc(Cl)cc2)C2CC2)cc1)c1ccccc1`, the logP amounted to 4.73.
Same read-out and setting: next, `O=C([C@H]1CNCC(=O)N1c1ccc(OCCCOCc2ccccc2)cc1)N(Cc1ccc(Cl)cc1)C1CC1`: 5.11; `COc1ccccc1COCCCOc1ccc(N2C(=O)CNC[C@@H]2C(=O)N(Cc2ccc(Cl)cc2)C2CC2)cc1`: 5.06.
Same read-out and setting: next, `COc1ccccc1COCCCOc1ncc(N2C(=O)CNC[C@@H]2C(=O)N(Cc2ccc(Cl)cc2)C2CC2)cn1`: 3.05; `O=C([C@H]1CNCC(=O)N1c1ccc(CCCOc2cccc(Cl)c2)cc1)N(Cc1ccc(Cl)cc1)C1CC1`: 5.91.
Regarding `O=C([C@H]1CNCC(=O)N1c1ccc(CCCOc2c(F)ccc(F)c2F)cc1)N(Cc1ccc(Cl)cc1)C1CC1`, the logP was 5.73.
Same read-out and setting: the value for `COc1c(CN(C(=O)[C@H]2CNCC(=O)N2c2ccc(OCCOc3c(Cl)cc(C)cc3Cl)cc2)C2CC2)ccnc1C` was 4.22; that for `COc1c(CN(C(=O)[C@H]2CNCC(=O)N2c2ccc(OCCOc3c(Cl)cc(C)cc3Cl)nc2)C2CC2)ccnc1C` was 3.39.
As to `COc1c(CN(C(=O)[C@H]2CNCC(=O)N2c2ccc(COC(=O)c3ccccc3)cc2)C2CC2)ccnc1C`, the logP amounted to 3.12.
In turn, `COc1c(CN(C(=O)[C@H]2CNCC(=O)N2c2ccc(OCCCOCc3ccccc3)cc2)C2CC2)ccnc1C` registered a logP of 3.49.
`COc1ccccc1COCCCOc1ccc(N2C(=O)CNC[C@@H]2C(=O)N(Cc2ccnc(C)c2OC)C2CC2)cc1` showed a logP of 3.45.
For the compound `COc1ccccc1COCCCOc1ncc(N2C(=O)CNC[C@@H]2C(=O)N(Cc2ccnc(C)c2OC)C2CC2)cn1`, the lipophilicity (logP) was determined as 1.44.
The compound `COc1c(CN(C(=O)[C@H]2CNCC(=O)N2c2ccc(CCCOc3cccc(Cl)c3)cc2)C2CC2)ccnc1C` came in with a logP of 4.29.
`COc1c(CN(C(=O)[C@H]2CNCC(=O)N2c2ccc(CCCOc3c(F)ccc(F)c3F)cc2)C2CC2)ccnc1C` displayed a log partition coefficient (logP) of 4.12.
The same measure, in the same setting: the value for `Cc1cc(Cl)c(OCCOc2ccc(N3C(=O)CNC[C@@H]3C(=O)N(Cc3ccccc3Cl)C3CC3)cc2)c(Cl)c1` was 5.83; that for `Cc1cc(Cl)c(OCCOc2ccc(N3C(=O)CNC[C@@H]3C(=O)N(Cc3ccccc3Cl)C3CC3)cn2)c(Cl)c1` was 5.
Regarding `O=C(OCc1ccc(N2C(=O)CNC[C@@H]2C(=O)N(Cc2ccccc2Cl)C2CC2)cc1)c1ccccc1`, the log partition coefficient (logP) was found to be 4.73.
In the case of `O=C([C@H]1CNCC(=O)N1c1ccc(OCCCOCc2ccccc2)cc1)N(Cc1ccccc1Cl)C1CC1`, the logP amounted to 5.11.
Same read-out and setting: next, `COc1ccccc1COCCCOc1ccc(N2C(=O)CNC[C@@H]2C(=O)N(Cc2ccccc2Cl)C2CC2)cc1`: 5.06; `COc1ccccc1COCCCOc1ncc(N2C(=O)CNC[C@@H]2C(=O)N(Cc2ccccc2Cl)C2CC2)cn1`: 3.05.
Same read-out and setting: next, `O=C([C@H]1CNCC(=O)N1c1ccc(CCCOc2cccc(Cl)c2)cc1)N(Cc1ccccc1Cl)C1CC1`: 5.9; `O=C([C@H]1CNCC(=O)N1c1ccc(CCCOc2c(F)ccc(F)c2F)cc1)N(Cc1ccccc1Cl)C1CC1`: 5.73; `O=C(c1c(Oc2ccccc2)n(-c2ccccc2)c2cc(Cl)ccc12)N1CCNCC1`: 5.71.
Compound `Cc1c(F)cccc1Cc1cc2c(cc1O)c(C(=O)N1CCNCC1)c(Cc1cccc(F)c1C)n2-c1ccccc1` registered a logP of 7.78.
`Cc1ccc(F)cc1Oc1c(C(=O)N2CCNCC2)c2ccc(O)cc2n1-c1ccc(F)cc1` had a log partition coefficient (logP) of 5.45.
Consider `Cc1ccc(F)cc1Oc1c(C(=O)N2CCNCC2)c2ccccc2n1[C@H]1C=CCCC1`, for which the logP amounted to 5.3.
Regarding `Cc1cc(Cl)c(OCCOc2ccc(N3C(=O)CNC[C@@H]3C(=O)N(Cc3cccc(C)c3C)C3CC3)cc2)cc1C`, the lipophilicity (logP) is 5.54.
For `Cc1cccc(CN(C(=O)[C@H]2CNCC(=O)N2c2ccc(OCCOc3c(Cl)cc(F)cc3Cl)cc2)C2CC2)c1C`, the log partition coefficient (logP) was 5.69.

The same data set, now with this note: octanol/water.
As to `COc1ccccc1COCCCOc1ncc(N2C(=O)CNC[C@@H]2C(=O)NCc2ccccc2Cl)cn1`, the logP was determined as 2.2.
